Ends that are not written are not given here.
What was measured:
[1] = test system: HCA SMCs; test: Measurement of elastin (Fastin assay) in cell-seeded collagen gels; type: cell-based, human; settings: gels cultured for 10 days
Description: Collagen gels seeded with HCA SMCs were prepared as described in EXAMPLE 30. Differentiation medium was changed every three days and gels were cultured for 10 days. Collagen gels containing no cells were used as a control. Gels were rinsed in 1×PBS overnight to remove serum protein, and gels were tested for elastin content using the Fastin elastin assay per manufacturers protocol (Biocolor, County […].). Briefly, gels were solubilized in 0.25 M oxalic acid by incubating at 100° C. for 1 hr. Elastin was precipitated and samples were then centrifuged at 11,000×g for 10 min. The solubilized collagen supernatant was removed and the elastin pellet was stained by Fastin Dye Reagent for 90 min at room temperature. Samples were centrifuged at 11,000×g for 10 min and unbound dye in the supernatant was removed. Dye from the elastin pellets was released by the Fastin Dye Dissociation Reagent, and 100 μL samples were transferred to a 96-well plate (Costar). Absorbance was measured at 513 nm, and elastin content was calculated from an α-elastin standard curve.

[2] = biological target: T1, collagen gels (Bos taurus, UniProt P02453+P02465); test: Cryo-SEM measurement of fibril density; type: biochemical; settings: 10:1 molar ratio, cryo-SEM 10,000×
T1 construct: purchased Inamed, Freemont, Calif; Nutragen
Description: Collagen gels were formed in the presence of each additive at a 10:1 molar ratio, as described in EXAMPLE 16, directly on the SEM stage, processed, and imaged as described. Images at 10,000× were analyzed for fibril density calculations. Images were converted to 8-bit black and white, and threshold values for each image were determined using ImageJ software (NIH). The threshold was defined as the value where all visible fibrils are white, and all void space is black. The ratio of white to black area was calculated using MatLab software. All measurements were taken in triplicate and thresholds were determined by an observer blinded to the treatment.

[3] = biological target: T2, collagen I (Bos taurus, UniProt P02453+P02465); test: Cryo-SEM measurements on collagen I, fibril diameter; type: biochemical; settings: 4 mg/mL collagen, 10:1 collagen:treatment, cryo-SEM 20,000×
T2 construct: purchased Inamed, Freemont, Calif; Nutragen
Description: (§1) Gels were made with Nutragen collagen (Inamed, Freemont, Calif.) at a final concentration of 4 mg/mL collagen. Nutragen stock is 6.4 mg/mL in 10 mM HCl. Gel preparation was performed on ice, and fresh samples were made before each test. The collagen solution was adjusted to physiologic pH and salt concentration, by adding appropriate volumes of 10×PBS (phosphate buffered saline), 1×PBS, and 1M NaOH. For most experiments, samples of DS, decorin, DS-SILY, or DS-Dc13 were added at a 10:1 collagen:treatment molar ratio by a final 1×PBS addition (equal volumes across treatments) in which the test samples were dissolved at appropriate concentrations. In this way, samples are constantly kept at pH 7.4 and physiologic salt concentration. Collagen-alone samples received a 1×PBS addition with no sample dissolved. Fibrillogenesis will be induced by incubating neutralized collagen solutions at 37° C. overnight in a humidified chamber to avoid dehydration. Gel solutions with collagen:treatment molar ratios of other than 10:1 were prepared similarly.
Gels for cryo-SEM were formed, as in EXAMPLE 16, directly on the SEM stage and incubated at 37° C. overnight. The stages were then secured in a cryo-holder and plunged into liquid nitrogen slush. Samples were then transferred to a Gatan Alto 2500 pre-chamber cooled to −170° C. under vacuum. A free-break surface was created with a cooled scalpel, and each sample evaporated under sublimation conditions for 20 min. The sample was coated by platinum sputter coating for 120 s. Samples were transferred to the cryo-stage at −130° C. and regions with similar orientation were imaged for comparison across treatments. Analysis of the images was performed to determine the fibril diameter distribution, presented in histograms adjacent the corresponding image in FIG. 14, and average fibril diameter, FIG. 17 an 18;. Fibril diameter was calculated using ImageJ software (NIH) measuring individual fibrils by hand (drawing a line across fibrils and measuring its length after properly setting the scale). At least 45 independent fibril measurement were recorded for average fibril diameter calculations.

[4] = test system: Human coronary artery smooth muscle cells (HCA SMC); test: Gel compaction by smooth muscle cells in collagen gels; type: cell-based
Description: Human coronary artery smooth muscle cells (HCA SMC) (Cascade Biologics) were cultured in growth medium (Medium 231 supplemented with smooth muscle growth factor). Cells from passage 3 were used for all experiments. Differentiation medium (Medium 231 supplemented with 1% FBS and 1× pen/strep) was used for all experiments unless otherwise noted.
Collagen gels were prepared with each additive as described with the exception that the 1×PBS example addition was omitted to accommodate the addition of cells in media. After incubating on ice for 30 min, HCA SMCs in differentiation medium were added to the gel solutions to a final concentration of 1×10^6 cells/mL. Gels were formed in quadruplicate in 48-well non-tissue culture treated plates (Costar) for 6 hrs before adding 500 μL/well differentiation medium. Gels were freed from the well edges after 24 hrs. Medium was changed every 2-3 days and images for compaction were taken at the same time points using a Gel Doc System (Bio-Rad). The cross-sectional area of circular gels correlating to degree of compaction was determined using ImageJ software (NIH). Gels containing no cells were used as a negative control and cells in collagen gels absent additive were used as a positive control. […] By day 10 all gels had compacted to approximately 10% of the original gel area, and differences between additives were small.

[5] = biological target: T3, collagen type I gels (Bos taurus, UniProt P02453+P02465); test: Viscoelastic characterization of collagen type I gels (rheometer); type: biochemical; settings: varying ratios of collagen to additive, vs untreated collagen
T3 construct: purchased Inamed, Freemont, Calif; Nutragen
Description: as §1, with “similarly. Collagen gels were prepared as described in EXAMPLE 16 and prior to heating, 200 μL of each treatment were pipetted onto the wettable surface of hydrophobically printed slides (Tekdon). The PTFE printing restricted gels to the 20 mm diameter wettable region. Gels were formed in a humidified incubator at 37° C. overnight prior to mechanical testing. […]” for “similarly.”

[6] = biological target: T4, collagen (Bos taurus, UniProt P02453+P02465); test: Fibrillogenesis turbidity assay (absorbance at 313 nm); type: biochemical
T4 construct: purchased Inamed, Freemont, Calif; Nutragen
Description: as §1
Collagen fibrillogenesis was monitored by measuring turbidity related absorbance at 313 nm providing information on rate of fibrillogenesis and fibril diameter. Gel solutions were prepared as described in EXAMPLE 16 (4 mg/mL collagen, 10:1 collagen:treatment, unless otherwise indicated) and 50 uL/well were added at 4° C. to a 384-well plate. The plate was kept at 4° C. for 4 hours before initiating fibril formation. A SpectraMax M5 at 37° C. was used to measure absorbance at 313 nm at 30 s intervals for 6 hours.
A fibrillogenesis assay as described for DS-SILY, EXAMPLE 19, performed with the conjugate DS-Dc13.

[7] = test system: Human dermal fibroblasts; test: TGF-β1 production by human dermal fibroblasts (ELISA); type: cell-based; settings: 1.4 μM treatment, 48 hours
Description: Human dermal fibroblasts (Cascade Biologics) were seeded onto 96-well tissue culture polystyrene plates at a seeding density of 1.83×10^3 cells/well. Cells adhered overnight and cell medium was aspirated. 100 μL/well of cell medium containing a final concentration of 1.4 μM treatment delivered from a concentrated solution of treatment in 1×PBS was added to the cells. After 48 hours, cell medium was removed and frozen at −80 C until further testing. TGF-β1 was measured by ELISA using a kit and protocol from R&D Systems.

[8] = test system: Human aortic smooth muscle cells; test: Collagen remodeling: hydroxyproline content in medium of cell-seeded collagen gels; type: cell-based; settings: vs collagen alone; cultures up to 30 days
Description: Following a method by Grassl, et al. (Grassl, et al., Journal of Biomedical Materials Research 2002, 60, (4), 607-612), which is herein incorporated in its entirety, collagen gels with or without synthetic PG mimics were formed as described in EXAMPLE 16. Human aortic smooth muscle cells (Cascade Biologics, Portland, Oreg.) were seeded within collagen gels by adding 4×10^6 cells/mL to the neutralized collagen solution prior to incubation. The cell-collagen solutions were pipetted into an 8-well Lab-Tek chamber slide and incubated in a humidified 37° C. and 5% CO2 incubator. After gelation, the cell-collagen gels will be covered with 1 mL Medium 231 as prescribed by Cascade. Every 3-4 days, the medium was removed from the samples and the hydroxyproline content measured by a standard hydroxyproline assay (Reddy, 1996).
To measure degraded collagen in the supernatant medium, the sample was lyophilized, the sample hydrolyzed in 2M NaOH at 120° C. for 20 min. After cooling, free hydroxyproline was oxidized by adding chloramine-T (Sigma) and reacting for 25 min at room temperature. Ehrlich's aldehyde reagent (Sigma) was added and allowed to react for 20 min at 65° C. and followed by reading the absorbance at 550 nm on an M-5 spectrophotometer (Molecular Devices). […] Cultures were incubated for up to 30 days and three samples of each treatment measured. […]

[9] = test system: collagen; test: SILY binding to collagen (Biacore surface plasmon resonance)
Description: Biacore studies were performed on a Biacore 2000 using a CM-3 chip (Biacore, Inc., Piscataway, N.J.). The CM-3 chip is coated with covalently attached carboxymethylated dextran, which allows for attachment of the substrate collagen via free amine groups. Flow cells (FCs) 1 and 2 were used, with FC-1 as the reference cell and FC-2 as the collagen immobilized cell. Each FC was activated with EDC-NHS, and 1500RU of collagen was immobilized on FC-2 by flowing 1mg/mL collagen in sodium acetate, pH 4, buffer at 5 μL/min for 10 min. Unreacted NHS-ester sites were capped with ethanolamine; the control FC-1 was activated and capped with ethanolamin.
To determine peptide binding affinity, SILY was dissolved in 1× HBS-EP buffer (Biacore) at varying concentrations from 100 uM to 1.5 μm in 2-fold dilutions. […] The first 10 injections were buffer injections, which help to prime the system, followed by randomized sample injections, run in triplicate. Analysis was performed using BIAevaluation software (Biacore).

T3 sequence (P02453 162-1217 limits assumed): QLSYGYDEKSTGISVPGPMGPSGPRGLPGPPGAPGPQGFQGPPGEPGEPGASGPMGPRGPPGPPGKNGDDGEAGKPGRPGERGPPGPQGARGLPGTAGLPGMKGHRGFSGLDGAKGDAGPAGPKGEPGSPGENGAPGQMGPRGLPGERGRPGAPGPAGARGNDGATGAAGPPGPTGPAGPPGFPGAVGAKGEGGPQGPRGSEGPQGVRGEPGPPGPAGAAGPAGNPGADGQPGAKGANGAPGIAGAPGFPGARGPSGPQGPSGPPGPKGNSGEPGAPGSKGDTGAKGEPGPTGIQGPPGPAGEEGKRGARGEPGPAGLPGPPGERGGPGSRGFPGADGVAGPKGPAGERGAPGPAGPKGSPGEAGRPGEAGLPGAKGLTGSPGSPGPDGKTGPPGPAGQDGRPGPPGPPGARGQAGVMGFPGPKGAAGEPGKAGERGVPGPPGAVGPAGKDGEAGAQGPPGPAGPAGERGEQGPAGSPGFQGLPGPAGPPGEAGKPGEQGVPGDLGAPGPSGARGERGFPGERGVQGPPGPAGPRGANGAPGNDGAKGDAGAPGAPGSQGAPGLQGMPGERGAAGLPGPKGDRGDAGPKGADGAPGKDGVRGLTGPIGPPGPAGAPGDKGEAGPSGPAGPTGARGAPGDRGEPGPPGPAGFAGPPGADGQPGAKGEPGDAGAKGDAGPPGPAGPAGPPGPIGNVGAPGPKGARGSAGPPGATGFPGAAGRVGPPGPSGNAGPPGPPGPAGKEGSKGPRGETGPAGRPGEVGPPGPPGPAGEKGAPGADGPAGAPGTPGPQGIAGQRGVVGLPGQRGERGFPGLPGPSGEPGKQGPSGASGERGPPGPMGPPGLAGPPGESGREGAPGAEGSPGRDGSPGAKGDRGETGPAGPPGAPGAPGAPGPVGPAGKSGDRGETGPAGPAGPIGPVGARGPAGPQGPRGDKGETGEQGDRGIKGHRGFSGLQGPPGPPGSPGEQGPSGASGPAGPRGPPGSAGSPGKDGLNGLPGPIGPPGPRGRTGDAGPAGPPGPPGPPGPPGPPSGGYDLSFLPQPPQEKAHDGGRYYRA
T3 sequence (P02465 80-1117 limits assumed): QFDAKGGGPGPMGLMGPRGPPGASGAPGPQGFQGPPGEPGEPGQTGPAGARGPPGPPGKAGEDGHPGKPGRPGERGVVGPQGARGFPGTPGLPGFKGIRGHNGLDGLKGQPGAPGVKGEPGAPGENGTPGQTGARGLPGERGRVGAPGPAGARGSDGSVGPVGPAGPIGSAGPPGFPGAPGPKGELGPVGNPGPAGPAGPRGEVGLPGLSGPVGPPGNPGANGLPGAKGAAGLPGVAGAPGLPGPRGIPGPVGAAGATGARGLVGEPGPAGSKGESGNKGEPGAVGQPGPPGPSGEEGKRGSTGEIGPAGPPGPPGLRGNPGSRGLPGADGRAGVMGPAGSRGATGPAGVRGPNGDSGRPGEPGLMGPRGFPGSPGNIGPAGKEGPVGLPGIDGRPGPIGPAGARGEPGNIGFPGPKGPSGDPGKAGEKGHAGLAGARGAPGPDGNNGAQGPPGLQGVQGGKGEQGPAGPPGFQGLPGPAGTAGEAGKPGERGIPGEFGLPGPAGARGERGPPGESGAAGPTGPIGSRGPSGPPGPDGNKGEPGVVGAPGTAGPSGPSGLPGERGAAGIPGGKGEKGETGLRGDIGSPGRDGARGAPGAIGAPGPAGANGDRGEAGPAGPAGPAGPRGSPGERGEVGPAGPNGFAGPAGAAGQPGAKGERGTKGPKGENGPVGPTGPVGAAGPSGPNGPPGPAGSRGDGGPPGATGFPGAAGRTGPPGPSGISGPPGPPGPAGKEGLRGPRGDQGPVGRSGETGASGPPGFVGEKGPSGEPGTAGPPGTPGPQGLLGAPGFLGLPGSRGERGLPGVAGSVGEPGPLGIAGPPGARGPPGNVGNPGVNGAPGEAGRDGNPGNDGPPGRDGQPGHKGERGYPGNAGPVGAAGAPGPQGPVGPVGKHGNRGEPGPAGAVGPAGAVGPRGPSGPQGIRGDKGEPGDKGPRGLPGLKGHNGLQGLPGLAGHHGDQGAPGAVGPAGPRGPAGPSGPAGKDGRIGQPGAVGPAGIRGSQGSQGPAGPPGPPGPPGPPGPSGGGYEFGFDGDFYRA
T2 sequence (P02453 162-1217 limits assumed): as the sequence (P02453 162-1217 limits assumed) above
T2 sequence (P02465 80-1117 limits assumed): as the sequence (P02465 80-1117 limits assumed) above
T1 sequence (P02453 162-1217 limits assumed): as the sequence (P02453 162-1217 limits assumed) above
T1 sequence (P02465 80-1117 limits assumed): as the sequence (P02465 80-1117 limits assumed) above
T4 sequence (P02453 162-1217 limits assumed): as the sequence (P02453 162-1217 limits assumed) above
T4 sequence (P02465 80-1117 limits assumed): as the sequence (P02465 80-1117 limits assumed) above

reversibility of binding to collagen ([9]; association/disassociation curves, FIG. 2)	Kd ([9]; calculated from the on-off binding kinetics, collagen immobilized on CM-3 chip) [nM]	Substance	elastin production [1]	fibril density (ratio of fibril containing area to void space) [2]	average fibril diameter [3]	gel compaction at early time points ([4]; Days 3 and 5)	gel compaction ([4]; day 10)	stiffness of collagen gel (storage modulus G') [5]	rate of fibrillogenesis ([6]; 4 mg/mL collagen, 10:1 collagen:treatment unless otherwise indicated)	fibrillogenesis and overall absorbance ([6]; 1:1 or 10:1 collagen to treatment, FIG. 12)	TGF-β1 in cell medium [7]	collagen degradation measured by hydroxyproline content in cell medium [8]
		DS-Dc13: dermatan sulfate conjugated via PDPH to Dc13 peptide, molar ratio about 1 (SYIRIADTNITGC; also: dermatan sulfate conjugate via PDPH, molar ratio about 1, site not given here)	significantly decreased elastin production over untreated collagen	not significant compared to collagen	significant decrease in average fibril diameter	significantly compacted more than gels made of collagen alone or collagen with dermatan sulfate	slightly, but significantly, less compact than gels treated with decorin or collagen	increase the stiffness of the resulting collagen gel over untreated collagen	decrease the rate of fibrillogenesis	delays fibrillogenesis and decreases overall absorbance in a dose-dependent manner		
		dermatan sulfate [reference compound]	significantly decreased elastin production over untreated collagen					increase the stiffness of the resulting collagen gel over untreated collagen			significantly decreased TGF-β1	
binds reversibly with collagen	1200	RRANAALKAGELYKSILYGC		significantly greater fibril density	significant decrease in average fibril diameter						significantly decreased TGF-β1	greater collagen degradation compared to collagen alone
